Assay in all cases: cAMP functional assay (HTRF) in HEK293 cells in presence of 0.1% casein
What all share (type): cell-based
(TR-FRET usually uses a lanthanide donor and a delayed reading to cut background.)

Assay [1] concerns the target T1, human glucose-dependent insulinotropic peptide receptor (GIPR) (Homo sapiens, UniProt P48546).
T1 construct: expressed in transfected cells; host or cells: HEK293
T1 sequence (P48546 22-466): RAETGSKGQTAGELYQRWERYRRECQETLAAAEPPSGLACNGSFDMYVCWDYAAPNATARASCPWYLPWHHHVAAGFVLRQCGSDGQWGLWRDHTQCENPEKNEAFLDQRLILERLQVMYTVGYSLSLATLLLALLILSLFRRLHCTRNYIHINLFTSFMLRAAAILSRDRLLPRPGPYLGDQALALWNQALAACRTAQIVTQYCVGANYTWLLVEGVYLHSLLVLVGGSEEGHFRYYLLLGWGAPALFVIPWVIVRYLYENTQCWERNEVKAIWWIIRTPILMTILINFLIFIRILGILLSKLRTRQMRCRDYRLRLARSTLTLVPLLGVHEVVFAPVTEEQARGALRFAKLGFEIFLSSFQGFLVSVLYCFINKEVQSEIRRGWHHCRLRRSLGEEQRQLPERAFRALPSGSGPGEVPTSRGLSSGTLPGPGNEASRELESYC
Conditions: HEK293 cells expressing human GIPR, geometric mean, read-out: hGIPR cAMP Rel EC50 nM (SEM, n).

For assay [2], the target named is T2, human GLP-1 receptor (GLP-1R) (Homo sapiens, UniProt P43220).
T2 construct: expressed in transfected cells; host or cells: HEK293
Particulars: HEK293 cells expressing human GLP-1R, geometric mean, read-out: hGLP1R cAMP Rel EC50 nM (SEM, n).

Assay [3] deals with T3, human glucagon receptor (GcgR) (Homo sapiens, UniProt P47871).
T3 construct: expressed in transfected cells; host or cells: HEK293
Particulars: HEK293 cells expressing human GcgR, geometric mean, read-out: hGcgR cAMP Rel EC50 nM (SEM, n).

*1 amine or outer side, *2 acyl side, *3 side chain or, on linkers, in order; H or OH if unused. Where a SMILES comes first, the peptide text is derived from it. Side-chain parts run from the residue outwards. [ ]: non-standard residue; d: D form. The star is where a group is joined. C20 diacid = O=C(O)CCCCCCCCCCCCCCCCCCC(=O)*; αMePhe(2-F) = C[C@](N)(Cc1ccccc1F)C(=O)O; γGlu = O=C(O)[C@H](CCC(=O)[*:2])N[*:1]; αMeF = C[C@](N)(Cc1ccccc1)C(=O)O; 4Pal = N[C@@H](Cc1ccncc1)C(=O)O; AEEA = NCCOCCOCC(=O)O; Aib = CC(C)(N)C(=O)O

T3 sequence (P47871 26-477): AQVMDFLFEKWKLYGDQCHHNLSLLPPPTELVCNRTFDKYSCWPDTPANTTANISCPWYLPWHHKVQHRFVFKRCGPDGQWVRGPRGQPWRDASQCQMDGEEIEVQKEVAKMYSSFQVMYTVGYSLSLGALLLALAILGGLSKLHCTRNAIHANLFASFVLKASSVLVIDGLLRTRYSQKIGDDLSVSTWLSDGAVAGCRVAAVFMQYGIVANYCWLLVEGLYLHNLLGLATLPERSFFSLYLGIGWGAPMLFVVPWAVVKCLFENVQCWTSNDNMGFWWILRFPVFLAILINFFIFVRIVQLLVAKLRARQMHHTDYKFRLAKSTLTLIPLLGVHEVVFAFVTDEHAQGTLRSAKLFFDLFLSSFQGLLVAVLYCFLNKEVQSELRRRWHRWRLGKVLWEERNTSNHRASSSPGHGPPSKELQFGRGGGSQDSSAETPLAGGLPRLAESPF
T2 sequence (P43220 24-463): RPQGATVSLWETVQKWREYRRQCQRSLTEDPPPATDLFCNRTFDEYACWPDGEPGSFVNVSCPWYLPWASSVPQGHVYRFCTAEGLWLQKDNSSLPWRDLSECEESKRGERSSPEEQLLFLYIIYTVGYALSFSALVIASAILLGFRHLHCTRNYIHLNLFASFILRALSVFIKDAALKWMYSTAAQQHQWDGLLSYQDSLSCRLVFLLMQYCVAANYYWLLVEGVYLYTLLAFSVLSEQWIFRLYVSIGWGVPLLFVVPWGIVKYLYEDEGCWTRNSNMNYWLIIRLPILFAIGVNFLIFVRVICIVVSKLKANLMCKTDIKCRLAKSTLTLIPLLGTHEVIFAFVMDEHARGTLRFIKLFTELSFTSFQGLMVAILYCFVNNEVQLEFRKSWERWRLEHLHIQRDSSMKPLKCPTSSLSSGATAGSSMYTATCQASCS

In general, EC50 refers to the midpoint of the concentration-response curve. On to `CC[C@H](C)[C@H](NC(=O)[C@H](CO)NC(=O)[C@H](Cc1ccc(O)cc1)NC(=O)[C@H](CC(=O)O)NC(=O)[C@H](CO)NC(=O)[C@@H](NC(=O)[C@](C)(Cc1ccccc1F)NC(=O)[C@@H](NC(=O)CNC(=O)[C@H](CCC(=O)O)NC(=O)C(C)(C)NC(=O)[C@@H](N)Cc1ccc(O)cc1)[C@@H](C)O)[C@@H](C)CC)C(=O)N[C@@H](C)C(=O)N[C@@H](CC(C)C)C(=O)N[C@@H](CC(=O)O)C(=O)N[C@@H](CCCCN)C(=O)N[C@@H](CCCCNC(=O)COCCOCCNC(=O)COCCOCCNC(=O)CC[C@H](NC(=O)CCCCCCCCCCCCCCCCCCC(=O)O)C(=O)O)C(=O)N[C@@H](Cc1c[nH]cn1)C(=O)N[C@@H](CCC(N)=O)C(=O)NC(C)(C)C(=O)N[C@@H](CC(=O)O)C(=O)N[C@@H](Cc1ccccc1)C(=O)N[C@H](C(=O)N[C@@H](CCC(=O)O)C(=O)N[C@@H](Cc1ccc(O)cc1)C(=O)N[C@@H](CC(C)C)C(=O)N[C@@H](CC(C)C)C(=O)N[C@@H](CCC(=O)O)C(=O)NCC(=O)NCC(=O)N1CCC[C@H]1C(=O)N[C@@H](CO)C(=O)N[C@@H](CO)C(=O)NCC(=O)N[C@@H](C)C(=O)N1CCC[C@H]1C(=O)N1CCC[C@H]1C(=O)N1CCC[C@H]1C(=O)N[C@@H](CO)C(N)=O)C(C)C` [Example 37] (H-Y[Aib]EGT[αMePhe(2-F)]ISDYSIALDKK([AEEA-AEEA-γGlu-C20 diacid])HQ[Aib]DFVEYLLEGGPSSGAPPPS-NH2), for which the EC50 in assay [1] is 0.036 nM; in assay [2], 61.1 nM; in assay [3], > 5000 nM.

Take `CC[C@H](C)[C@H](NC(=O)[C@H](CO)NC(=O)[C@H](Cc1ccc(O)cc1)NC(=O)[C@H](CC(=O)O)NC(=O)[C@H](CO)NC(=O)[C@@H](NC(=O)[C@](C)(Cc1ccccc1F)NC(=O)[C@@H](NC(=O)CNC(=O)[C@H](CCC(=O)O)NC(=O)C(C)(C)NC(=O)[C@@H](N)Cc1ccc(O)cc1)[C@@H](C)O)[C@@H](C)CC)C(=O)N[C@@H](C)C(=O)N[C@@H](CC(C)C)C(=O)N[C@@H](CC(=O)O)C(=O)N[C@@H](CCCCN)C(=O)N[C@@H](CCCCNC(=O)COCCOCCNC(=O)COCCOCCNC(=O)CC[C@H](NC(=O)CCCCCCCCCCCCCCCCCCC(=O)O)C(=O)O)C(=O)N[C@@H](Cc1c[nH]cn1)C(=O)N[C@@H](CCC(N)=O)C(=O)NC(C)(C)C(=O)N[C@@H](CC(=O)O)C(=O)N[C@@H](Cc1ccccc1)C(=O)N[C@H](C(=O)N[C@@H](CCC(=O)O)C(=O)N[C@@H](Cc1ccncc1)C(=O)N[C@@H](CC(C)C)C(=O)N[C@@H](CC(C)C)C(=O)N[C@@H](CCC(=O)O)C(=O)N[C@H](C(=O)NCC(=O)N1CCC[C@H]1C(=O)N[C@@H](CO)C(=O)N[C@@H](CO)C(=O)NCC(=O)N[C@@H](C)C(=O)N1CCC[C@H]1C(=O)N1CCC[C@H]1C(=O)N1CCC[C@H]1C(=O)N[C@@H](CO)C(N)=O)[C@@H](C)O)C(C)C` [Example 38] (H-Y[Aib]EGT[αMePhe(2-F)]ISDYSIALDKK([AEEA-AEEA-γGlu-C20 diacid])HQ[Aib]DFVE[4Pal]LLETGPSSGAPPPS-NH2): the EC50 in assay [1] is 0.0368 nM; in assay [2] it was 1390 nM; in assay [3], > 5000 nM.

With `CC[C@H](C)[C@H](NC(=O)[C@H](CO)NC(=O)[C@H](Cc1ccc(O)cc1)NC(=O)[C@H](CC(=O)O)NC(=O)[C@H](CO)NC(=O)[C@@H](NC(=O)[C@](C)(Cc1ccccc1F)NC(=O)[C@@H](NC(=O)CNC(=O)[C@H](CCC(=O)O)NC(=O)C(C)(C)NC(=O)[C@@H](N)Cc1ccc(O)cc1)[C@@H](C)O)[C@@H](C)CC)C(=O)N[C@@H](C)C(=O)N[C@@H](CC(C)C)C(=O)N[C@@H](CC(=O)O)C(=O)N[C@@H](CCCCN)C(=O)N[C@@H](CCCCNC(=O)COCCOCCNC(=O)COCCOCCNC(=O)CC[C@H](NC(=O)CCCCCCCCCCCCCCCCCCC(=O)O)C(=O)O)C(=O)N[C@@H](Cc1c[nH]cn1)C(=O)N[C@@H](CCC(N)=O)C(=O)NC(C)(C)C(=O)N[C@@H](CC(=O)O)C(=O)N[C@@H](Cc1ccccc1)C(=O)N[C@H](C(=O)N[C@@H](CCC(=O)O)C(=O)N[C@@H](Cc1ccncc1)C(=O)N[C@@H](CC(C)C)C(=O)N[C@@H](CC(C)C)C(=O)N[C@@H](CCC(=O)O)C(=O)NCC(=O)NCC(=O)N1CCC[C@H]1C(=O)N[C@@H](CO)C(=O)N[C@@H](CO)C(=O)NCC(=O)N[C@@H](C)C(=O)N1CCC[C@H]1C(=O)N1CCC[C@H]1C(=O)N1CCC[C@H]1C(=O)N[C@@H](CO)C(N)=O)C(C)C` [Example 39] (H-Y[Aib]EGT[αMePhe(2-F)]ISDYSIALDKK([AEEA-AEEA-γGlu-C20 diacid])HQ[Aib]DFVE[4Pal]LLEGGPSSGAPPPS-NH2), the concentration giving a half-maximal response (EC50) in assay [1] is 0.0112 nM; in assay [2], 3330 nM; in assay [3] it was > 5000 nM.

For `CC[C@H](C)[C@H](NC(=O)[C@H](CO)NC(=O)[C@H](Cc1ccc(O)cc1)NC(=O)[C@H](CC(=O)O)NC(=O)[C@H](CO)NC(=O)[C@@H](NC(=O)[C@](C)(Cc1ccccc1F)NC(=O)[C@@H](NC(=O)CNC(=O)[C@H](CCC(=O)O)NC(=O)C(C)(C)NC(=O)[C@@H](N)Cc1ccc(O)cc1)[C@@H](C)O)[C@@H](C)CC)C(=O)N[C@@H](C)C(=O)N[C@@H](CC(C)C)C(=O)N[C@@H](CC(=O)O)C(=O)N[C@@H](CCCCN)C(=O)N[C@@H](CCCCNC(=O)COCCOCCNC(=O)COCCOCCNC(=O)CC[C@H](NC(=O)CCCCCCCCCCCCCCCCCCC(=O)O)C(=O)O)C(=O)N[C@@H](Cc1c[nH]cn1)C(=O)N[C@@H](CCC(N)=O)C(=O)NC(C)(C)C(=O)N[C@@H](CC(=O)O)C(=O)N[C@@H](Cc1ccccc1)C(=O)N[C@H](C(=O)N[C@@H](CCC(=O)O)C(=O)N[C@@H](Cc1c[nH]c2ccccc12)C(=O)N[C@@H](CC(C)C)C(=O)N[C@@H](CC(C)C)C(=O)N[C@@H](CCC(=O)O)C(=O)N[C@H](C(=O)NCC(=O)N1CCC[C@H]1C(=O)N[C@@H](CO)C(=O)N[C@@H](CO)C(=O)NCC(=O)N[C@@H](C)C(=O)N1CCC[C@H]1C(=O)N1CCC[C@H]1C(=O)N1CCC[C@H]1C(=O)N[C@@H](CO)C(N)=O)[C@@H](C)O)C(C)C` [Example 40] (H-Y[Aib]EGT[αMePhe(2-F)]ISDYSIALDKK([AEEA-AEEA-γGlu-C20 diacid])HQ[Aib]DFVEWLLETGPSSGAPPPS-NH2), the EC50 in assay [1] was 0.033 nM; in assay [2] it was 2330 nM; in assay [3], > 5000 nM.

Turning to `CC[C@H](C)[C@H](NC(=O)[C@H](CO)NC(=O)[C@H](Cc1ccc(O)cc1)NC(=O)[C@H](CC(=O)O)NC(=O)[C@H](CO)NC(=O)[C@@H](NC(=O)[C@](C)(Cc1ccccc1)NC(=O)[C@@H](NC(=O)CNC(=O)[C@H](CCC(=O)O)NC(=O)C(C)(C)NC(=O)[C@@H](N)Cc1ccc(O)cc1)[C@@H](C)O)[C@@H](C)CC)C(=O)N[C@@H](C)C(=O)N[C@@H](CC(C)C)C(=O)N[C@@H](CC(=O)O)C(=O)N[C@@H](CCCCN)C(=O)N[C@@H](CCCCNC(=O)COCCOCCNC(=O)COCCOCCNC(=O)CC[C@H](NC(=O)CCCCCCCCCCCCCCCCCCC(=O)O)C(=O)O)C(=O)N[C@@H](Cc1c[nH]cn1)C(=O)N[C@@H](CCC(N)=O)C(=O)NC(C)(C)C(=O)N[C@@H](CC(=O)O)C(=O)N[C@@H](Cc1ccccc1)C(=O)N[C@H](C(=O)N[C@@H](CCC(=O)O)C(=O)N[C@@H](Cc1ccncc1)C(=O)N[C@@H](CC(C)C)C(=O)N[C@@H](CC(C)C)C(=O)N[C@@H](CCC(=O)O)C(=O)N[C@H](C(=O)NCC(=O)N1CCC[C@H]1C(=O)N[C@@H](CO)C(=O)N[C@@H](CO)C(=O)NCC(=O)N[C@@H](C)C(=O)N1CCC[C@H]1C(=O)N1CCC[C@H]1C(=O)N1CCC[C@H]1C(=O)N[C@@H](CO)C(N)=O)[C@@H](C)O)C(C)C` [Example 41] (H-Y[Aib]EGT[αMeF]ISDYSIALDKK([AEEA-AEEA-γGlu-C20 diacid])HQ[Aib]DFVE[4Pal]LLETGPSSGAPPPS-NH2), the EC50 was 0.0281 nM in assay [1], 1800 nM in assay [2] and > 5000 nM in assay [3].

On to `CC[C@H](C)[C@H](NC(=O)[C@H](CO)NC(=O)[C@H](Cc1ccc(O)cc1)NC(=O)[C@H](CC(=O)O)NC(=O)[C@H](CO)NC(=O)[C@@H](NC(=O)[C@](C)(Cc1ccccc1)NC(=O)[C@@H](NC(=O)CNC(=O)[C@H](CCC(=O)O)NC(=O)C(C)(C)NC(=O)[C@@H](N)Cc1ccc(O)cc1)[C@@H](C)O)[C@@H](C)CC)C(=O)N[C@@H](C)C(=O)N[C@@H](CC(C)C)C(=O)N[C@@H](CC(=O)O)C(=O)N[C@@H](CCCCN)C(=O)N[C@@H](CCCCNC(=O)COCCOCCNC(=O)COCCOCCNC(=O)CC[C@H](NC(=O)CCCCCCCCCCCCCCCCCCC(=O)O)C(=O)O)C(=O)N[C@@H](Cc1c[nH]cn1)C(=O)N[C@@H](CCC(N)=O)C(=O)NC(C)(C)C(=O)N[C@@H](CC(=O)O)C(=O)N[C@@H](Cc1ccccc1)C(=O)N[C@H](C(=O)N[C@@H](CCC(=O)O)C(=O)N[C@@H](Cc1ccncc1)C(=O)N[C@@H](CC(C)C)C(=O)N[C@@H](CC(C)C)C(=O)N[C@@H](CCC(=O)O)C(=O)N[C@@H](CCC(N)=O)C(=O)NCC(=O)N1CCC[C@H]1C(=O)N[C@@H](CO)C(=O)N[C@@H](CO)C(=O)NCC(=O)N[C@@H](C)C(=O)N1CCC[C@H]1C(=O)N1CCC[C@H]1C(=O)N1CCC[C@H]1C(=O)N[C@@H](CO)C(N)=O)C(C)C` [Example 42] (H-Y[Aib]EGT[αMeF]ISDYSIALDKK([AEEA-AEEA-γGlu-C20 diacid])HQ[Aib]DFVE[4Pal]LLEQGPSSGAPPPS-NH2), for which the EC50 in assay [1] was 0.0091 nM; in assay [2], 815 nM; in assay [3], > 5000 nM.

For the origin of these results see patent US12723063B2, “GIPR-agonist compounds” (Eli Lilly and Company, priority 2019, dated 2026).
